This is an account of results in US9233095B2, “Small molecule RNase inhibitors and methods of use” (University of Rochester, priority 2011, dated 2016).

Converted amounts (≈) assume the structure as drawn.

In general, MIC refers to the lowest concentration found to suppress growth. Higher therefore signals weaker potency.

Type in all cases: cell-based
The subject of one data set is HepG2 human hepatocytes. Put plainly: MTT cytotoxicity assay. The following applies: for HepG2 cell toxicity: 24 hr exposure, any concentration tested (25, 50 μg/ml); for HepG2 cytotoxicity: 48 hr exposure. The method, then:
It was then assessed whether RnpA-inhibitory agent concentrations corresponding to the effective bacterial MIC values (10-50 μg/ml) elicited human cell cytotoxicity. HepG2 human hepatocytes (10^5 cells) were seeded in individual wells of a microtitre plate and incubated for 16 hr at 37° C. with 5% carbon dioxide in Dulbecco's Modified Eagle Media supplemented with 10% fetal bovine serum. Cells were then challenged with Mitomycin C (5 μg/ml; positive control) or 0, 25, or 50 μg/ml RNPA1000 for either 24 or 48 hrs. Cell viability was measured spectrophotometrically (570 nm) following the addition and subsequent reduction of tetrazolium salt (MTT) within metabolically active cells, as per the manufacturer's recommendations (American Type Culture Collection; Manassas, Va.).

In a further data set the test system is S. aureus strain UAMS-1. Kind of data set: time-kill assay. The method, then:
(§1) With the exception of RN4220-derivatives, in vitro activities of RNPA1000 against bacteria were determined by the broth microdilution method according to the Clinical and Laboratory Standards Institute (CLSI) guidelines using cation adjusted Mueller-Hinton broth or MH broth supplemented with 5% lysed horse blood (for testing Streptotococcus spp.). Microtiter plates containing serial dilutions of RNPA1000 (0, 4, 8, 16, 32, 64, and 128 μg/ml) were inoculated with 10^5 colony forming units (CFU)/ml and incubated for 18 hr at 37° C. […] The MIC value for each S. aureus strain was determined to be the median score of replicate measurements (n=5). Wells containing concentrations of RNPA1000≧MIC were plated for minimal bactericidal measurement. Where possible, experiments with VRSA strains were performed in a laminar flow hood to minimize potential for equipment contamination. For RN4220 cells containing plasmid vector (pCN51), RnpA overproducing plasmid (pRNPA-S) or RnpA underproducing plasmid (pRNPA-A.S.) in vitro antimicrobial activity of RNPA1000 was performed by the microdilution method as described above, except that cells were grown in Tryptic Soy Broth medium supplemented with 2.5 μM CdCl2 and 0, 1, 2, 4, 8, 16, 32, 64, or 128 μg/ml RNPA1000. Time-kill assays were also performed to monitor the antimicrobial properties of RNPA1000 for S. aureus strain UAMS-1 in the absence and presence of 0.25, 0.5, 2, and 4 times the strain's MIC for oxacillin (1 μg/ml), rifampicin (0.5 μg/ml), vancomycin (2 μg/ml), or daptomycin (1 μg/ml). The indicated amount of RNPA1000 and/or commercial antibiotic were added to mid-exponential phase (2×10^8 cfu/ml) S. aureus strain UAMS-1 cells and incubated at 37° C. Aliquots were removed at 0, 2, 4, 8, and 24 hr post-antimicrobial challenge, serial diluted, and plated to enumerate resulting cfu/ml. All time-kill assays were repeated at least 3 times.

Data set [1] concerns S. aureus cellular mRNA degradation. Put plainly: GeneChip mRNA turnover of RNPA1000 challenged cells. The following applies: 0.5× MIC, 30 min treatment, versus mock treated cells. The method, then: For half life determinations, S. aureus strain UAMS-1, RN4220 (pCN51; plasmid containing CdCl2 inducible promoter), RN4220 (pRNPA; pCN51 capable of producing full length rnpA mRNA), or RN4220 (pRNPA-A.S.; pCN51 capable of producing rnpA antisense RNA) were grown to mid-exponential or stationary phase, transcription was arrested by the addition of rifampin (200 μg/ml), and aliquots were removed at 0-, 2.5-, 5-, 15- and 30-min post-transcriptional arrest for strain UAMS-1. To conserve reagents, aliquots were removed at 0 and 10 min post-transcriptional arrest for RN4220 derivatives. Plating ensured cultures had not developed rifampin resistance. Each strain and/or growth phase was assessed twice, except for RN4220 pRNPA-A.S. cells which were assessed four times. RNA was isolated from each aliquot, labeled, hybridized to an S. aureus GeneChip (Affymetrix; Santa Clara, Calif.), duplicates were averaged, and the mRNA half-lives of all mRNA species were determined, as previously described (see Anderson et al., J Bacteriol, 188: 6739-6756 (2006); Roberts et al., J Bacteriol, 188: 2593-2603 (2006)). […] Transcript synthesis was then arrested and the transcript titers of mRNA species were measured at 0- and 5-min post-transcriptional arrest (see Anderson et al., J Bacteriol, 188: 6739-6756 (2006); Roberts et al., J Bacteriol, 188: 2593-2603 (2006)). […]

In another data set the test system is S. epidermidis. Kind of data set: CLSI broth microdilution MIC. The settings on record: Staphylococcus epidermidis.
Source text: (§2) In some examples, compounds can be further assayed using the Mueller Hinton (MH) broth antibacterial assay as specified by the Clinical and Laboratory Standards Institute MIC broth microdilution protocol (see Methods for Dilution Antimicrobial Susceptibility Tests for Bacteria That Grow Aerobically; Approved Standard, In The Clinical and Laboratory Standards Institute (CLSI, formerly NCCLS), 7th ed., January 2006, 26 (2), M7-A7; see also Performance Standards for Antimicrobial Susceptibility Testing; Eighteenth Informational Supplement, In The Clinical and Laboratory Standards Institute (CLSI, formerly NCCLS), January 2008, 28 (1), M100-S18).
as §1
Background: In broth dilution the organism is exposed to a series of concentrations in liquid medium.

A further data set has as its system S. agalactiae. Put plainly: CLSI broth microdilution MIC. The settings on record: Streptococcus agalactiae.
Source text: as §2, §1

Setting [2] is: combination time-kill, data not shown.

Consider `Cc1cc(/C=C(/C#N)C(=O)Nc2cccc(Br)c2)c(C)n1-c1ccc(C(=O)O)cc1` [RNPA1000], for which the HepG2 cell toxicity result with HepG2 human hepatocytes was “not toxic”; in the data set on HepG2 human hepatocytes (listed as RNP1000), “did not cause human HepG2 cell toxicity”. The HepG2 cytotoxicity entry is “mildly toxic” in the data set with HepG2 human hepatocytes (25 μg/ml); “mild cytotoxicity” in the data set on HepG2 human hepatocytes (25 μg/ml, listed as RNP1000); “increased toxicity” in the data set on HepG2 human hepatocytes (higher concentrations than 25 μg/ml). Also, in the data set on S. aureus strain UAMS-1 (0.25-4 times the MIC, 0-24 hr), the “mode of antimicrobial action in time kill assays” value is “bacteriostatic”. In addition, in the data set with S. aureus strain UAMS-1 (combination time-kill, 0.5 times the MIC of each), the “effect on the potency of oxacillin” value is given as “mildly increase the potency”. Moreover, the “effect on the antimicrobial activity of daptomycin” value in the data set on S. aureus strain UAMS-1 (setting [2]) was “does not affect the antimicrobial activities”. The “effect on the antimicrobial activity of rifampicin” value in the data set with S. aureus strain UAMS-1 (setting [2]) was “does not affect the antimicrobial activities”. Besides, the “effect on the antimicrobial activity of vancomycin” value with S. aureus strain UAMS-1 (setting [2]) is “does not affect the antimicrobial activities”. Besides, the “mRNA degradation rate of S. aureus cells” value in data set [1] is “reduced the mRNA degradation rate”. The minimal inhibitory concentration (MIC) in the data set on S. epidermidis (S. epidermidis Isolate 1) is 16 µg/mL (≈ 34.5 µM); against S. epidermidis (S. epidermidis Isolate 2), 8 µg/mL (≈ 17.2 µM); with S. epidermidis (S. epidermidis Isolate 3) it was 8 µg/mL (≈ 17.2 µM); in the data set on S. epidermidis (S. epidermidis Isolate 4) it was 8 µg/mL (≈ 17.2 µM); in the data set on S. epidermidis (S. epidermidis Isolate 5), 8 µg/mL (≈ 17.2 µM); in the data set on S. agalactiae (S. agalactiae Isolate 1), 16 µg/mL (≈ 34.5 µM). The minimum inhibitory concentration (MIC) in the data set on S. agalactiae (S. agalactiae Isolate 2), in the data set with S. agalactiae (S. agalactiae Isolate 3) and against S. agalactiae (S. agalactiae Isolate 4) was 32 µg/mL (≈ 68.9 µM) throughout.
